In PubChem BioAssay AID687005 (Broad Institute, 2013) one finds activity change, negative = cytotoxicity data, which are given here for 59 compounds.

Results filed as inconclusive are left out. Calls of active or inactive are those of the source.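 Rule for the calls: active = Compounds that reduce signal, with fitted half-maximal dose at or under twice the top valid tested dose; inconclusive = Poor fit, or flat curve losing 30 to 70% of signal; inactive = Potency past limit, flat within 30%, or opposite direction.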

The first experiment can be described thus: viability loss in HEK293T cells – cell-based, ATP luminescence, cherry-pick samples, cytotoxicity control, dose response (AID 687005). As to conditions: HEK293T viability, ATP luminescence (CellTiter-Glo), 48 h; at 23.5 µM (top of the series).
On to `CO[C@H]1CN(C)C(=O)c2cc(NC(=O)C3CCOCC3)ccc2OC[C@@H](C)NC[C@H]1C`, for which the activity change, negative = cytotoxicity was 41% (inactive).
For the compound `COc1cccc(C#Cc2cnc3c(c2)C(=O)N([C@H](C)CO)C[C@@H](C)[C@@H](CN(C)C(=O)C2CCOCC2)O3)c1`, the activity change, negative = cytotoxicity is 6.67% (inactive).
Same read-out and setting: in the case of `C[C@H]1CN([C@@H](C)CO)C(=O)Cc2cc(NC(=O)C3CC3)ccc2O[C@H]1CN(C)Cc1ccc(-c2ccccc2)cc1` it was -24.1% (inactive); in that of `CO[C@@H]1CN(C)C(=O)c2cc(NC(=O)C3CCOCC3)ccc2OC[C@H](C)NC[C@@H]1C`, -2.94% (inactive).
On to `COCCNC(=O)C[C@@H]1C[C@H]2c3cc(NC(=O)C4CCOCC4)ccc3O[C@H]2[C@H](CO)O1`, for which the activity change, negative = cytotoxicity was 25.9% (inactive).
Still for that read-out and setting: in the case of `C[C@@H]1CCCCO[C@@H](CN(C)CC2CCCCC2)[C@@H](C)CN([C@@H](C)CO)C(=O)c2cc(NS(=O)(=O)c3ccccc3)ccc2O1` it was -40.3% (inactive); in that of `Cc1noc(C)c1NC(=O)N(C)C[C@H]1OCCCC[C@H](C)Oc2ccc(NC(=O)NC(C)C)cc2C(=O)N([C@@H](C)CO)C[C@@H]1C`, 68% (inactive); in that of `C[C@@H]1CN([C@@H](C)CO)C(=O)c2cc(NC(=O)Nc3ccc4c(c3)OCO4)ccc2O[C@H]1CN(C)Cc1ccc(Oc2ccccc2)cc1`, -38.4% (inactive).
For `O=C(C[C@@H]1C[C@@H]2c3cc(NC(=O)Nc4ccc(F)cc4)ccc3O[C@@H]2[C@@H](CO)O1)NCC1CC1`, the activity change, negative = cytotoxicity is 26.7% (inactive).
Turning to `C[C@@H]1CCCCO[C@@H](CN(C)Cc2ccncc2)[C@@H](C)CN([C@@H](C)CO)C(=O)c2cc(NC(=O)c3ccncc3)ccc2O1`, the activity change, negative = cytotoxicity was 46.4% (inactive).
On the same count and under the same terms, in the case of `C/C=C/c1ccc([C@H]2[C@@H](CO)N(C(=O)CC)[C@@H]2CNC(=O)C2CC2)cc1` it was 42.4% (inactive).

The experiment is the same for the next values; noted with them: HEK293T viability, ATP luminescence (CellTiter-Glo), 48 h; at 26 µM (top of the series).
`O=C([C@H]1[C@H](CO)[C@H]2Cn3c(cccc3=O)[C@@H]1N2Cc1cccc(Cl)c1)N1CCOCC1`: the activity change, negative = cytotoxicity is -20.6% (inactive).
On the same count and under the same terms, in the case of `C[C@H](CO)N1C[C@H](C)[C@H](CN(C)C(=O)NC2CCCCC2)OCCCC[C@H](C)Oc2ccc(NS(=O)(=O)c3cn(C)cn3)cc2C1=O` it was 3.14% (inactive); in that of `CCCNC(=O)N1C[C@@H](O)COC[C@H]2O[C@H](CC(=O)N3CCN(C)CC3)CC[C@@H]21`, -7.83% (inactive).
On the same count and under the same terms, in the case of `CC(C)(C)SCCNC(=O)CN(c1ccccc1)S(=O)(=O)c1ccc(F)cc1` it was -6.34% (inactive).
The same measure, in the same setting: in the case of `CNC[C@H]1OCCCC[C@H](C)Oc2ccc(NC(=O)Cc3ccccc3)cc2C(=O)N([C@H](C)CO)C[C@@H]1C` it was -17.1% (inactive).
With `COCCNC(=O)C[C@H]1C[C@@H]2c3cc(NC(=O)C4CCC4)ccc3O[C@@H]2[C@H](CO)O1`, the activity change, negative = cytotoxicity is 26.2% (inactive).
With `COC(=O)C1=C(C)N(Cc2ccc(F)cc2)C(=S)NC1c1cccc(Cl)c1` (centres undefined), the activity change, negative = cytotoxicity is -1.12% (inactive).
On the same count and under the same terms, the result for `Cc1cc(C(=O)NC(=S)Nc2ccccc2N2CCOCC2)ccc1[N+](=O)[O-]` reads -23.2% (inactive); that for `C[C@H]1CN([C@@H](C)CO)C(=O)c2cccc(NS(=O)(=O)c3ccc(Cl)cc3)c2O[C@@H]1CN(C)CC1CC1`, 18% (inactive).
In the case of `C[C@@H]1CN([C@H](C)CO)C(=O)c2cc(NS(=O)(=O)c3cn(C)cn3)ccc2O[C@@H](C)CCCCO[C@H]1CN(C)C`, the activity change, negative = cytotoxicity was 21.8% (inactive).
On the same count and under the same terms, in the case of `O=C(C[C@H]1CC[C@H]2[C@@H](COC[C@@H](O)CN2C(=O)Nc2ccc(Cl)cc2)O1)N1CCCCC1` it was 25.8% (inactive); in that of `C[C@@H]1CN([C@@H](C)CO)C(=O)CCCn2nncc2CO[C@H]1CN(C)Cc1cccc(C(F)(F)F)c1`, -26.6% (inactive).
Still for that read-out and setting: the result for `Cc1noc(C)c1S(=O)(=O)Nc1ccc2c(c1)CC(=O)N([C@@H](C)CO)C[C@H](C)[C@@H](CN(C)S(=O)(=O)c1cn(C)cn1)O2` reads 50.4% (inactive); that for `CCN1C(=S)N[C@@H](c2cccc(F)c2)C(C(=O)OC)=C1C`, 5.06% (inactive); that for `Cc1ccc(C2CC(c3cccs3)=NN2C(=O)c2ccc(Br)o2)cc1` (centres undefined), 39% (inactive).
Still for that read-out and setting: the result for `C[C@@H]1CN([C@H](C)CO)C(=O)c2cc(-c3ccc(C#N)cc3)cnc2O[C@@H]1CN(C)C(=O)Nc1ccc(F)cc1` reads -0.869% (inactive); that for `C[C@@H]1CN([C@H](C)CO)C(=O)c2cc(NS(=O)(=O)c3ccc(Cl)cc3)ccc2O[C@H]1CN(C)S(=O)(=O)c1ccc(F)cc1`, 38.8% (inactive).
With `COc1ccccc1CNC(=O)C[C@@H]1C[C@@H]2c3cc(NC(=O)Nc4ccccc4F)ccc3O[C@@H]2[C@H](CO)O1`, the activity change, negative = cytotoxicity was 15.8% (inactive).
For `CC(=O)NC[C@H]1[C@@H](c2ccc(C3=CCCC3)cc2)[C@@H](CO)N1C(=O)NC(C)C`, the activity change, negative = cytotoxicity is -31.1% (inactive).
On the same count and under the same terms, the result for `CCCC#Cc1cnc2c(c1)C(=O)N([C@@H](C)CO)C[C@H](C)[C@H](CN(C)C(=O)Nc1cccc(F)c1)O2` reads 42% (inactive).
As to `O=C(C[C@H]1CC[C@H]2[C@@H](COC[C@@H](O)CN2C(=O)c2ccc(F)cc2)O1)N1CCOCC1`, the activity change, negative = cytotoxicity is -14.1% (inactive).
In the case of `C[C@@H](NC(=O)C[C@H]1CC[C@@H](NC(=O)Cc2ccccn2)[C@@H](CO)O1)c1ccccc1`, the activity change, negative = cytotoxicity is -16.9% (inactive).
Still for that read-out and setting: in the case of `Cc1noc(C)c1NC(=O)Nc1cccc2c1O[C@@H](CN(C)S(=O)(=O)c1cn(C)cn1)[C@@H](C)CN([C@@H](C)CO)C2=O` it was -3.21% (inactive); in that of `C[C@H](CO)N1C[C@H](C)[C@H](CN(C)Cc2ccccc2)OCCCC[C@H](C)Oc2ccc(NS(=O)(=O)c3cccs3)cc2C1=O`, -20.5% (inactive); in that of `C[C@H](CO)N1C[C@H](C)[C@H](CN(C)C(=O)c2ccccn2)Oc2ncc(-c3ccccc3)cc2C1=O`, -0.807% (inactive).
The same measure, in the same setting: in the case of `O=C(C1CCOCC1)N1CC[C@@H]2[C@H]1c1cc(Br)ccc1N[C@@H]2CO` it was 8.11% (inactive).
On the same count and under the same terms, in the case of `CCC(=O)N(C)C[C@@H]1Oc2cc(C#CC(C)(C)O)ccc2S(=O)(=O)N([C@H](C)CO)C[C@H]1C` it was -15.7% (inactive); in that of `COc1ccccc1-c1cnc2c(c1)C(=O)N([C@H](C)CO)C[C@@H](C)[C@H](CN(C)Cc1cncnc1)O2`, 28.4% (inactive); in that of `CNC(=O)C[C@@H]1CC[C@@H]2[C@H](COC[C@@H](O)CN2C(=O)Nc2ccc3c(c2)OCO3)O1`, 25% (inactive).
For `O=C(NC1CCCCC1)N[C@@H]1CC[C@@H](CCNS(=O)(=O)c2ccc(Cl)cc2)O[C@H]1CO`, the activity change, negative = cytotoxicity was 45.5% (inactive).
Same read-out and setting: the result for `O=C(Nc1ccc(F)cc1)N1C[C@H]2[C@@H](c3ccccc31)[C@@H](CO)N2Cc1cocn1` reads -16.4% (inactive); that for `C[C@@H]1CN([C@@H](C)CO)C(=O)c2cccc(NC(=O)Nc3ccccc3)c2O[C@H]1CN(C)S(=O)(=O)c1cn(C)cn1`, 55.5% (inactive).
On the same count and under the same terms, in the case of `CCC(=O)N1[C@H](CO)[C@H](c2ccccc2)[C@@H]1CN(CC)C(=O)c1cccc(F)c1` it was 25% (inactive).
Consider `C[C@H](CO)N1C[C@H](C)[C@H](CN(C)C(=O)Nc2cccc3ccccc23)Oc2ccc(NC(=O)Nc3ccccc3)cc2C1=O`, for which the activity change, negative = cytotoxicity is 2.5% (inactive).
Consider `N#C[C@H]1[C@@H](c2ccccc2)[C@@H](CO)N1C(=O)Cc1ccccc1`, for which the activity change, negative = cytotoxicity was -9.76% (inactive).
Still for that read-out and setting: in the case of `CO[C@H]1CN(C)C(=O)c2cc(NC(=O)C3CC3)ccc2OC[C@@H](C)N(Cc2cncnc2)C[C@H]1C` it was -23.3% (inactive); in that of `O=C(c1ccco1)N1N=C(c2cccs2)CC1c1cc([N+](=O)[O-])ccc1O` (centres undefined), 37.4% (inactive).
In the case of `CO[C@H]1CN(C)C(=O)c2cc(NS(=O)(=O)c3ccc(C)cc3)ccc2OC[C@@H](C)N(C(=O)NC(C)C)C[C@@H]1C`, the activity change, negative = cytotoxicity was 26.2% (inactive).
On the same count and under the same terms, in the case of `CC(C)COc1ccc(CNC(=S)NCc2ccccc2)cc1` it was -1.46% (inactive); in that of `CN1C(=O)c2cc(NC(=O)NC3CCCC3)ccc2OC[C@H]2O[C@@H](CC(=O)NC3CCC3)CC[C@@H]21`, 0.295% (inactive); in that of `O=C(CN(c1ccc(F)cc1)S(=O)(=O)c1ccccc1)N1CCOCC1`, -20% (inactive).
On the same count and under the same terms, in the case of `CO[C@H]1CN(C)C(=O)c2ccc(NC(C)=O)cc2OC[C@H](C)N(C(=O)c2ccncc2)C[C@@H]1C` it was -20% (inactive); in that of `CCC(=O)Nc1ccc2c(c1)OC[C@H](C)N(C(=O)c1ccc(F)cc1)C[C@@H](C)[C@@H](OC)CN(C)C2=O`, 62.2% (inactive); in that of `COCC(=O)Nc1ccc2c(c1)C(=O)N(C)C[C@@H](OC)[C@H](C)CN(Cc1ccccc1)[C@@H](C)CO2`, 7.91% (inactive).
Take `C[C@H]1CN([C@@H](C)CO)C(=O)c2cc(-c3ccccc3)cnc2O[C@@H]1CN(C)C(=O)c1ccccn1`: the activity change, negative = cytotoxicity was 19% (inactive).
Regarding `CCC(C)(C(=O)Nc1ccccc1C)N(C(=O)CNC(C)=O)c1ccc(C)cc1` (centres undefined), the activity change, negative = cytotoxicity was -11.7% (inactive).
Same read-out and setting: the result for `COc1ccc(S(=O)(=O)Nc2ccc3c(c2)C(=O)N([C@@H](C)CO)C[C@H](C)[C@@H](CN(C)C)OCCCC[C@H](C)O3)cc1` reads -9.62% (inactive).

Still in this experiment, the particulars now being: HEK293T viability, ATP luminescence (CellTiter-Glo), 48 h; at 42 µM (top of the series).
Regarding `CCC(=O)N1CCCC1(C)C(=O)Nc1ccc(C)c(C)c1` (centres undefined), the activity change, negative = cytotoxicity was -1.9% (inactive).
